24 compounds from BindingDB's records for doi:10.1016/s0960-894x(01)00095-6 (Seoul National University, 2001) can be followed below.

Test [1] concerns the target Isoleucine--tRNA ligase (Escherichia coli) (UniProt P00956). In words: Inhibition of [3H]isoleucyl incorporation by Escherichia coli isoleucyl-tRNA synthetase (IleRS).
In test [2] the target is Methionine--tRNA ligase (Escherichia coli) (UniProt P00959). Kind of test: Inhibition of [35S]methionyl incorporation by Escherichia coli methionyl-tRNA synthetase (MetRS).

SMILES strings stand for the structures. Where only a bound is given, the exact number is not on record here.

Sequence of Methionine--tRNA ligase (Escherichia coli) (P00959 whole entry, looked up): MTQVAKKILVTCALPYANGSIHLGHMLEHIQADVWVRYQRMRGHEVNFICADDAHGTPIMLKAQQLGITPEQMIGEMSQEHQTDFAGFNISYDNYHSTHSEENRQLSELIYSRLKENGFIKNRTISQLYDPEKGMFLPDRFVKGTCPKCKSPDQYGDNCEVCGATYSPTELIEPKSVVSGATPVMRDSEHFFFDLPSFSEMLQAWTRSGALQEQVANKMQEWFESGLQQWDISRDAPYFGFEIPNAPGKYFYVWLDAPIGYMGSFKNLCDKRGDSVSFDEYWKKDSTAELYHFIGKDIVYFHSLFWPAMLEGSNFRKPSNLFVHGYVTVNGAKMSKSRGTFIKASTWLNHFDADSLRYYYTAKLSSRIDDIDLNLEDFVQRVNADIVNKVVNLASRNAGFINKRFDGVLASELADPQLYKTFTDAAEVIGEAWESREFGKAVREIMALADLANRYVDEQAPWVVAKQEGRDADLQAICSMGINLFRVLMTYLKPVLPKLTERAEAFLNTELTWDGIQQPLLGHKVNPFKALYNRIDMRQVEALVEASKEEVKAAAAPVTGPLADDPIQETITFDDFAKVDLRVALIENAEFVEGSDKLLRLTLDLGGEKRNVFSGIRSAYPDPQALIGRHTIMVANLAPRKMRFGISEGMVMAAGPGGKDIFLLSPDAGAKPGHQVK
Sequence of Isoleucine--tRNA ligase (Escherichia coli) (P00956 whole entry, looked up): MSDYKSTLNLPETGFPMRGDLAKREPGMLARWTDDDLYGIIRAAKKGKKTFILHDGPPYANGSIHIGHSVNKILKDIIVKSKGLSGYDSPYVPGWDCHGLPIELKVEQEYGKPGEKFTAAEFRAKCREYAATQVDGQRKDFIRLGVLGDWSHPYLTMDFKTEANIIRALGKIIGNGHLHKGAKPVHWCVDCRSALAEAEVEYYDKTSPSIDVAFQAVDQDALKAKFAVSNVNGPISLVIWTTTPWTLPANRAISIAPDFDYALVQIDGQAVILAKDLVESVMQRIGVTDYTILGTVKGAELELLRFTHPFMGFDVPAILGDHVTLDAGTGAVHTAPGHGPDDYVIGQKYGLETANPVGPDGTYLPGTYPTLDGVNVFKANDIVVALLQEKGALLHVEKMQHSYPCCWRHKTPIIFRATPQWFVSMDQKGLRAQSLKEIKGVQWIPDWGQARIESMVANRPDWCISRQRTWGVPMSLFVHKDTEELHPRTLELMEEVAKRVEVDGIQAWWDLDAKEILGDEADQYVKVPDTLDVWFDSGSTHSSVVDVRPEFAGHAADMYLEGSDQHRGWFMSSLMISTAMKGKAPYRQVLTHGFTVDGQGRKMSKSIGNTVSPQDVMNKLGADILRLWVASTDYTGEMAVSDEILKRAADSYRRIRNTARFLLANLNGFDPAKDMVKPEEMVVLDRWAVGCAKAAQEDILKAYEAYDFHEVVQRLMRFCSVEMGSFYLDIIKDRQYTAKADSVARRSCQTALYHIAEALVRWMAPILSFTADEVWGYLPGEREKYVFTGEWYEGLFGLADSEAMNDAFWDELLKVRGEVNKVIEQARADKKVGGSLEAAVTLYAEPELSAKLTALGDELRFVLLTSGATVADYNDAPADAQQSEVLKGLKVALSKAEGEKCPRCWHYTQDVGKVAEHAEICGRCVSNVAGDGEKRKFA

On to `CC[C@H](C)[C@H](N)C(=O)N(O)C[C@H]1O[C@@H](CCn2nnc(-c3ccccc3)n2)[C@H](O)[C@@H]1O` [(1S,2S)-1-({(2R,3S,4R,5S)-3,4-Dihydroxy-5-[2-(5-phenyl-tetrazol-2-yl)-ethyl]-tetrahydro-furan-2-ylmethyl}-hydroxy-carbamoyl)-2-methyl-butyl-ammonium], for which the IC50 in test [1] is over 128 µM.

With `CC[C@H](C)[C@H](N)C(=O)N(O)C[C@H]1O[C@@H](CCn2cnc3c(N)ncnc32)[C@H](O)[C@@H]1O` [(1S,2S)-1-({(2R,3S,4R,5S)-5-[2-(6-Amino-purin-9-yl)-ethyl]-3,4-dihydroxy-tetrahydro-furan-2-ylmethyl}-hydroxy-carbamoyl)-2-methyl-butyl-ammonium], the IC50 in test [1] is over 128 µM.

In the case of `CC[C@H](C)[C@H](N)C(=O)N(O)C[C@H]1O[C@@H](CCn2cnc3c(NCc4ccccc4)ncnc32)[C@H](O)[C@@H]1O` [(1S,2S)-1-({(2R,3S,4R,5S)-5-[2-(6-Benzylamino-purin-9-yl)-ethyl]-3,4-dihydroxy-tetrahydro-furan-2-ylmethyl}-hydroxy-carbamoyl)-2-methyl-butyl-ammonium], in test [1], the IC50 was over 128 µM.

Regarding `CC[C@H](C)[C@H](N)C(=O)OC[C@H]1O[C@@H](n2cnc3c(N)ncnc32)[C@H](O)[C@@H]1O` [(1S,2S)-1-[(2R,3S,4R,5R)-5-(6-Amino-purin-9-yl)-3,4-dihydroxy-tetrahydro-furan-2-ylmethoxycarbonyl]-2-methyl-butyl-ammonium], the IC50 in test [1] stood at 183 µM.

Compound `CC[C@H](C)[C@H](N)C(=O)OC[C@H]1O[C@@H](Cn2cnc3c(N)ncnc32)[C@H](O)[C@@H]1O` [(1S,2S)-1-[(2R,3S,4R,5S)-5-(6-Amino-purin-9-ylmethyl)-3,4-dihydroxy-tetrahydro-furan-2-ylmethoxycarbonyl]-2-methyl-butyl-ammonium] had an IC50 in test [1] of over 128 µM.

The compound `CC[C@H](C)[C@H](N)C(=O)OC[C@H]1O[C@@H](CCn2nnc(-c3ccccc3)n2)[C@H](O)[C@@H]1O` [(1S,2S)-1-{(2R,3S,4R,5S)-3,4-Dihydroxy-5-[2-(5-phenyl-tetrazol-2-yl)-ethyl]-tetrahydro-furan-2-ylmethoxycarbonyl}-2-methyl-butyl-ammonium] had an IC50 in test [1] of 63.6 µM.

Take `CC[C@H](C)[C@H](N)C(=O)OC[C@H]1O[C@@H](CCn2cnc3c(N)ncnc32)[C@H](O)[C@@H]1O` [(1S,2S)-1-{(2R,3S,4R,5S)-5-[2-(6-Amino-purin-9-yl)-ethyl]-3,4-dihydroxy-tetrahydro-furan-2-ylmethoxycarbonyl}-2-methyl-butyl-ammonium]: the IC50 in test [1] was over 128 µM.

With `CC[C@H](C)[C@H](N)C(=O)OC[C@H]1O[C@@H](CCn2cnc3c(NCc4ccccc4)ncnc32)[C@H](O)[C@@H]1O` [(1S,2S)-1-{(2R,3S,4R,5S)-5-[2-(6-Benzylamino-purin-9-yl)-ethyl]-3,4-dihydroxy-tetrahydro-furan-2-ylmethoxycarbonyl}-2-methyl-butyl-ammonium], in test [1], 84 µM corresponded to half-maximal inhibition (IC50).

The compound `CC[C@H](C)[C@H](N)C(=O)N(O)C[C@H]1O[C@@H](n2cnc3c(N)ncnc32)[C@H](O)[C@@H]1O` [(1S,2S)-1-{[(2R,3S,4R,5R)-5-(6-Amino-purin-9-yl)-3,4-dihydroxy-tetrahydro-furan-2-ylmethyl]-hydroxy-carbamoyl}-2-methyl-butyl-ammonium] yielded an IC50 in test [1] of 181 µM.

In the case of `CC[C@H](C)[C@H](N)C(=O)N(O)C[C@H]1O[C@@H](Cn2cnc3c(N)ncnc32)[C@H](O)[C@@H]1O` [(1S,2S)-1-{[(2R,3S,4R,5S)-5-(6-Amino-purin-9-ylmethyl)-3,4-dihydroxy-tetrahydro-furan-2-ylmethyl]-hydroxy-carbamoyl}-2-methyl-butyl-ammonium], the IC50 in test [1] was over 128 µM.

On to `CSCC[C@H](N)C(=O)N(O)C[C@H]1O[C@@H](CCn2nnc(-c3ccccc3)n2)[C@H](O)[C@@H]1O` [(S)-1-({(2R,3S,4R,5S)-3,4-Dihydroxy-5-[2-(5-phenyl-tetrazol-2-yl)-ethyl]-tetrahydro-furan-2-ylmethyl}-hydroxy-carbamoyl)-3-methylsulfanyl-propyl-ammonium], for which, in test [2], the IC50 was 34 µM.

Consider `CSCC[C@H](N)C(=O)N(O)C[C@H]1O[C@@H](CCn2cnc3c(N)ncnc32)[C@H](O)[C@@H]1O` [(S)-1-({(2R,3S,4R,5S)-5-[2-(6-Amino-purin-9-yl)-ethyl]-3,4-dihydroxy-tetrahydro-furan-2-ylmethyl}-hydroxy-carbamoyl)-3-methylsulfanyl-propyl-ammonium], for which the IC50 in test [2] was 56 µM.

In test [2], `CSCC[C@H](N)C(=O)N(O)C[C@H]1O[C@@H](CCn2cnc3c(NCc4ccccc4)ncnc32)[C@H](O)[C@@H]1O` [(S)-1-({(2R,3S,4R,5S)-5-[2-(6-Benzylamino-purin-9-yl)-ethyl]-3,4-dihydroxy-tetrahydro-furan-2-ylmethyl}-hydroxy-carbamoyl)-3-methylsulfanyl-propyl-ammonium] yielded an IC50 of 23 µM.

Regarding `CSCC[C@H](N)C(=O)OC[C@H]1O[C@@H](n2cnc3c(N)ncnc32)[C@H](O)[C@@H]1O` [(S)-1-[(2R,3S,4R,5R)-5-(6-Amino-purin-9-yl)-3,4-dihydroxy-tetrahydro-furan-2-ylmethoxycarbonyl]-3-methylsulfanyl-propyl-ammonium], it took 5 µM to reach half-maximal inhibition in test [2] (IC50).

In test [2], `CSCC[C@H](N)C(=O)OC[C@H]1O[C@@H](Cn2nnc(-c3ccccc3)n2)[C@H](O)[C@@H]1O` [(S)-1-[(2R,3S,4R,5S)-3,4-Dihydroxy-5-(5-phenyl-tetrazol-2-ylmethyl)-tetrahydro-furan-2-ylmethoxycarbonyl]-3-methylsulfanyl-propyl-ammonium] came in with a half-inhibitory concentration (IC50) of 12.2 µM.

Regarding `CSCC[C@H](N)C(=O)OC[C@H]1O[C@@H](Cn2cnc3c(N)ncnc32)[C@H](O)[C@@H]1O` [(S)-1-[(2R,3S,4R,5S)-5-(6-Amino-purin-9-ylmethyl)-3,4-dihydroxy-tetrahydro-furan-2-ylmethoxycarbonyl]-3-methylsulfanyl-propyl-ammonium], in test [2], the IC50 is 3.6 µM.

Take `CSCC[C@H](N)C(=O)OC[C@H]1O[C@@H](Cn2cnc3c(NCc4ccccc4)ncnc32)[C@H](O)[C@@H]1O` [(S)-1-[(2R,3S,4R,5S)-5-(6-Benzylamino-purin-9-ylmethyl)-3,4-dihydroxy-tetrahydro-furan-2-ylmethoxycarbonyl]-3-methylsulfanyl-propyl-ammonium]: it took 16.5 µM to reach half-maximal inhibition in test [2] (IC50).

For `CSCC[C@H](N)C(=O)OC[C@H]1O[C@@H](CCn2nnc(-c3ccccc3)n2)[C@H](O)[C@@H]1O` [(S)-1-{(2R,3S,4R,5S)-3,4-Dihydroxy-5-[2-(5-phenyl-tetrazol-2-yl)-ethyl]-tetrahydro-furan-2-ylmethoxycarbonyl}-3-methylsulfanyl-propyl-ammonium], the IC50 in test [2] was over 256 µM.

The compound `CSCC[C@H](N)C(=O)OC[C@H]1O[C@@H](CCn2cnc3c(N)ncnc32)[C@H](O)[C@@H]1O` [(S)-1-{(2R,3S,4R,5S)-5-[2-(6-Amino-purin-9-yl)-ethyl]-3,4-dihydroxy-tetrahydro-furan-2-ylmethoxycarbonyl}-3-methylsulfanyl-propyl-ammonium] came in with an IC50 in test [2] of 8.3 µM.

For `CSCC[C@H](N)C(=O)OC[C@H]1O[C@@H](CCn2cnc3c(NCc4ccccc4)ncnc32)[C@H](O)[C@@H]1O` [(S)-1-{(2R,3S,4R,5S)-5-[2-(6-Benzylamino-purin-9-yl)-ethyl]-3,4-dihydroxy-tetrahydro-furan-2-ylmethoxycarbonyl}-3-methylsulfanyl-propyl-ammonium], inhibition in test [2] was half-maximal at 33.2 µM (IC50).

`CSCC[C@H](N)C(=O)N(O)C[C@H]1O[C@@H](n2cnc3c(N)ncnc32)[C@H](O)[C@@H]1O` [(S)-1-{[(2R,3S,4R,5R)-5-(6-Amino-purin-9-yl)-3,4-dihydroxy-tetrahydro-furan-2-ylmethyl]-hydroxy-carbamoyl}-3-methylsulfanyl-propyl-ammonium] showed an IC50 in test [2] of 27 µM.

As to `CSCC[C@H](N)C(=O)N(O)C[C@H]1O[C@@H](Cn2nnc(-c3ccccc3)n2)[C@H](O)[C@@H]1O` [(S)-1-{[(2R,3S,4R,5S)-3,4-Dihydroxy-5-(5-phenyl-tetrazol-2-ylmethyl)-tetrahydro-furan-2-ylmethyl]-hydroxy-carbamoyl}-3-methylsulfanyl-propyl-ammonium], it took 17 µM to reach half-maximal inhibition in test [2] (IC50).

In test [2], `CSCC[C@H](N)C(=O)N(O)C[C@H]1O[C@@H](Cn2cnc3c(N)ncnc32)[C@H](O)[C@@H]1O` [(S)-1-{[(2R,3S,4R,5S)-5-(6-Amino-purin-9-ylmethyl)-3,4-dihydroxy-tetrahydro-furan-2-ylmethyl]-hydroxy-carbamoyl}-3-methylsulfanyl-propyl-ammonium] returned an IC50 of 26 µM.

In test [2], `CSCC[C@H](N)C(=O)N(O)C[C@H]1O[C@@H](Cn2cnc3c(NCc4ccccc4)ncnc32)[C@H](O)[C@@H]1O` [(S)-1-{[(2R,3S,4R,5S)-5-(6-Benzylamino-purin-9-ylmethyl)-3,4-dihydroxy-tetrahydro-furan-2-ylmethyl]-hydroxy-carbamoyl}-3-methylsulfanyl-propyl-ammonium] had an IC50 of 63 µM.

The term IC50 denotes the concentration that gives 50% inhibition. Higher therefore signals weaker potency.
